Source: patent US20230357179A1, “RAF KINASE INHIBITORS AND METHODS OF USE THEREOF” (Deciphera Pharmaceuticals, LLC, priority 2021, published 2023)

Tests used:
B-Raf kinase = target: T1, B-Raf kinase (Homo sapiens, UniProt P15056); assay: Biochemical assay for B-Raf.1 (coupled pyruvate kinase/lactate dehydrogenase); settings: read-out: BRAF.1 IC50
T1 construct: GST (N); purchased Sigma
Procedure, shortened: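 Reaction rates over the 4–5 h window of a continuous 6 h, 30 °C read were converted to percent inhibition and fitted for IC50. B-Raf (0.13 nM) phosphorylated 30.1 nM MEK with 1 mM ATP; ADP coupled via PK/LDH to NADH loss at 340 nm, 1% DMSO final.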

B-Raf (V600E) kinase [1] = target: T2, B-Raf (V600E) kinase (Homo sapiens, UniProt P15056, V600E); assay: Biochemical assay for B-Raf (V600E).1 (coupled pyruvate kinase/lactate dehydrogenase); settings: read-out: BRAF V600E.1 IC50
T2 construct: B-Raf (V600E) residues 416-766 with a; GST (N); purchased SignalChem
T2 sequence (P15056 416-766 V600E): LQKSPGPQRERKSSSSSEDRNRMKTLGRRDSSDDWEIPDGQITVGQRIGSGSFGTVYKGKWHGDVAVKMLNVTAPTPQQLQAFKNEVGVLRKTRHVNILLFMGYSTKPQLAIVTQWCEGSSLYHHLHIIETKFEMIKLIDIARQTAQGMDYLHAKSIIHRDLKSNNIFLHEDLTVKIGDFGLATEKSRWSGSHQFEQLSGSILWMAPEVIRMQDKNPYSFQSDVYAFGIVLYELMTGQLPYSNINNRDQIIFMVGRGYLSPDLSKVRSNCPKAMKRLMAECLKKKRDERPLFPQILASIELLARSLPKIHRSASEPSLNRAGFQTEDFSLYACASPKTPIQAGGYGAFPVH
Procedure, shortened: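 IC50 came from four-parameter sigmoidal fits of percent inhibition, using reaction rates over 3-4 h. Continuous A340 reading (6 h, 30 °C) of a pyruvate kinase/lactate dehydrogenase-coupled reaction: B-Raf V600E 0.03 nM, MEK 30.1 nM, ATP 1 mM, Tris pH 7.5, 1% DMSO.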

A375 cells = assay: A375 cell proliferation assay (1), resazurin, 96-well; type: cell-based; settings: Homo sapiens, A-375, inhibition of cell proliferation
Procedure, shortened: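 Viability was read by resazurin fluorescence at 540 nm excitation and 600 nm emission, using a 440 μM solution added for 5–6 h at the end of culture. IC50 came from the curve fit.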

B-Raf (V600E) kinase [2] = target: T2, B-Raf (V600E) kinase; assay: Biochemical assay for B-Raf (V600E).2 (coupled pyruvate kinase/lactate dehydrogenase); settings: read-out: BRAF V600E.2 IC50
Protocol: Biochemical Assay for B-Raf (V600E).2
Activity of B-Raf (V600E) (SEQ. ID NO: 4) kinase was determined spectroscopically using a coupled pyruvate kinase/lactate dehydrogenase assay that continuously monitors the ATP hydrolysis-dependent oxidation of NADH (e.g., Schindler et al., Science, 2000, 289, 1938-1942). Assays were conducted in 384-well plates (25 μL final volume) using 0.5 nM B-Raf (deCode), 1.5 units pyruvate kinase, 2.1 units lactate dehydrogenase, 1 mM phosphoenol pyruvate, 0.7 mM NADH, 100 nM MEK (SignalChem), and 1 mM ATP in assay buffer (100 mM Tris, pH 7.5, 15 mM MgCl2, 0.5 mM DTT, 0.1% octyl-glucoside, 0.002% (w/v) BSA, and 0.002% Triton X-100). Inhibition of B-Raf (V600E) was measured by adding serial diluted test compound (final assay concentration of 1% DMSO). A decrease in absorption at 340 nm was monitored hourly for 4 h at 30° C. on a multi-mode microplate reader (BioTek). The reaction rate was calculated using the 3 to 4 h time frame. The reaction rate at each concentration of compound was converted to percent inhibition using controls (i.e., reaction with no test compound and reaction with a known inhibitor) and IC50 values were calculated by fitting a four-parameter sigmoidal curve to the data using Prism (GraphPad software).

T1 sequence (P15056 416-766): as the sequence (P15056 416-766 V600E) above, with E185V counted along it

Row | IC50 (B-Raf kinase) [nM] | IC50 (B-Raf (V600E) kinase [1]) [nM] | IC50 (A375 cells) [nM] | IC50 (B-Raf (V600E) kinase [2]) [nM] | Structure (SMILES)
1 | ≤ 100 | ≤ 100 | 100 to 500 | – | COC(=O)Nc1cc(-c2cccc(-c3cc(NC(=O)NCCC(C)(C)OC)c(F)cc3C)c2)ccn1 [Example 85]
2 | 500 to 1000 | ≤ 100 | 1000 to 10000 | – | Cc1cc(F)c(NC(=O)N[C@@H]2CC[C@H](F)C2)cc1-c1cc(OCCO)nc(-c2ccnc3[nH]ncc23)c1 [Example 88]
3 | 500 to 1000 | ≤ 100 | 1000 to 10000 | – | Cc1cc(F)c(NC(=O)N2CCC(C)(C#N)CC2)cc1-c1cc(OCCO)nc(-c2ccnc3[nH]ncc23)c1 [Example 92]
4 | – | – | – | ≤ 100 | CNC(=O)c1cc(-c2cncc(-c3cc(NC(=O)N4CC[C@H](C(C)C)C4)ccc3C)c2)ncn1 [Example 226]
5 | – | – | – | ≤ 100 | CNC(=O)c1cc(-c2cncc(-c3cc(NC(=O)N4CC[C@H](C(C)C)C4)ccc3C)c2)ccn1 [Example 229]

More lines, now with the values behind:

Row | Structure (SMILES) | IC50 (B-Raf kinase) [nM] | IC50 (B-Raf (V600E) kinase [1]) [nM] | IC50 (A375 cells) [nM] | IC50 (B-Raf (V600E) kinase [2]) [nM]
6 | Cc1cc(F)c(NC(=O)NCCC2(C)CC2)cc1-c1cc(OCCO)nc(-c2ccnc3[nH]ncc23)c1 [Example 87] | ≤ 100 | ≤ 100 | 100 to 500 | –
7 | Cc1cc(F)c(NC(=O)NCC[C@@H]2CCO2)cc1-c1cc(OCCO)nc(-c2ccnc3[nH]ncc23)c1 [Example 89] | > 1000 | > 1000 | 1000 to 10000 | –
8 | COC(C)(C)CCNC(=O)Nc1cc(-c2cc(OCCO)nc(-c3ccnc4[nH]ccc34)c2)c(C)cc1F [Example 90] | ≤ 100 | ≤ 100 | 1000 to 10000 | –
9 | COC(C)(C)CCNC(=O)Nc1cc(-c2cc(OCCO)nc(-c3ccnc4[nH]ncc34)c2)c(C)cc1F [Example 91] | ≤ 100 | ≤ 100 | 500 to 1000 | –
10 | CNC(=O)c1cc(-c2cc(-c3cc(NC(=O)N4CC[C@H](C(F)(F)F)C4)ccc3C)ccn2)ccn1 [Example 215] | – | – | 1000 to 10000 | 100 to 500
11 | CNC(=O)c1cc(-c2cncc(-c3cc(NC(=O)N4CC[C@H](C(F)(F)F)C4)ccc3C)c2)ncn1 [Example 220] | – | – | – | 100 to 500
12 | COC(=O)Nc1cc(-c2cncc(-c3cc(NC(=O)N4CC[C@H](C(F)(F)F)C4)ccc3C)c2)ncn1 [Example 224] | – | – | 100 to 500 | ≤ 100
13 | CNC(=O)c1cc(-c2cc(-c3cc(NC(=O)N4CC[C@H](C(C)C)C4)ccc3C)ccn2)ccn1 [Example 225] | – | – | – | ≤ 100
14 | Cc1ccc(NC(=O)N2CC[C@H](C)C2)cc1-c1cncc(-c2cc(NC(=O)C3CC3)ncn2)c1 [Example 227] | – | – | – | ≤ 100
15 | CNC(=O)c1cc(-c2cncc(-c3cc(NC(=O)N4CC[C@H](C(F)(F)F)C4)ccc3C)c2)ccn1 [Example 228] | – | – | – | ≤ 100
